Test results as given in patent US6534519B1, “Phenanthridine-N-oxides with PDE-IV inhibiting activity” (Altana Pharma AG, priority 1999, dated 2003).

What was measured:
[1] = tested on: PDE4; assay: Inhibition of PDE4 activity (method of Bauer and Schwabe, microtiter plates); type: biochemical; details: inhibitory concentration as −log IC50 (mol/1)
Excerpt: The activity test can be carried out, for example according to the method of Bauer and Schwabe. For this, the method is adapted to microtiter plates (Naunyn-Schmiedeberg's Arch. Pharmacol. 1980, 311, 193-198). The PDE reaction takes place in the first step here. In a second step, the resulting 5′-nucleotide is cleaved by a 5′-nucloetidase of the snake venom of Crotalus atrox to the uncharged nucleoside. In the third step, the nucleoside is separated from the remaining charged substrate on ion-exchange columns. The columns are eluted directly into minivials, into which 2 ml of scintillator fluid are additionally added for counting, using 2 ml of 30 mM ammonium formate (pH 6.0).
The inhibitory values determined for the compounds according to the invention [inhibitory concentration as −log IC50 (mol/1)] follow from the following Table A, in which the numbers of the compounds correspond to the numbers of the examples.

melting point: 143.5 to 146 °C
SMILES: CCn1nnc(-c2ccc(C3=[N+]([O-])C4CCCCC4c4cc(OC)c(OC)cc43)cc2)n1 (single isomer, unassigned; (-)) [Compound 1, (−)-cis-6-[4-(2-Ethyl-2H-tetrazol-5-yl)phenyl]-8,9-dimethoxy-1,2,3,4,4a,10b-hexahydrophen-anthridine-N-5-oxide]
−log IC50 [1]: 6.29
